Measured values: patent US6703397B2, “Pyrimidinyl methyl indole derivatives with antibacterial activity” (Basilea Pharmaceutica AG, priority 2000, dated 2004)
Values after ≈ are worked out from the molar mass of the structure shown. Read-outs that look alike come from different tables or passages of the source.

Tests used:
[1] = system: Streptococcus pneumoniae 1/1; assay: MIC against Streptococcus pneumoniae 1/1 (trimethoprim- and penicillin-resistant clinical isolate, serotype 6); format: cell-based; settings: Streptococcus pneumoniae 1/1, trimethoprim- and penicillin-resistant, serotype 6; for MIC: read-out: Spn 1/1 MIC
Procedure: The following Tables 1 and 2 contain inhibitory concentrations determined in the above test for representative members of the class of compound defined by formula I. The following microorganisms were tested: […]
Col. 2: MIC Spn1/1; μg/ml (Streptococcus pneumoniae 1/1, Trimethoprim- and Penicillin-resistant, Serotype 6; clinical isolate, stored at −80° C.). Lit.: H. Locher et al., Can. J. Infect. Dis. 6: Suppl. C, p 469C.

[2] = target: purified DHFR of strain Spn1/1 (Streptococcus pneumoniae serotype 4, UniProt Q54801, E20D/I100L/L135F/P70S/Q81H); assay: biochemical
Sequence of purified DHFR of strain Spn1/1 (Q54801 whole entry E20D/P70S/Q81H/I100L/L135F): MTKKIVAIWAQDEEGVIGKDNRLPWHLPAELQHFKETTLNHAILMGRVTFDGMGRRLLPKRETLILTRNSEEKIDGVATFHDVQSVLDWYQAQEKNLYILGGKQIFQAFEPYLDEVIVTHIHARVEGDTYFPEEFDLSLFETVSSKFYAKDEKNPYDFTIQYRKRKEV
From the text: Col. 3: DHFR Spn1/1; μM)—the IC50-values in μM against the purified DHFR of the above strain Spn1/1; of Streptococcus pneumoniae.

[3] = system: Streptococcus pneumoniae ATCC 49619; assay: MIC against Streptococcus pneumoniae ATCC 49619 (trimethoprim- and penicillin-susceptible reference strain); format: cell-based; settings: Streptococcus pneumoniae ATCC 49619, trimethoprim- and penicillin-susceptible; for MIC: ATCC49619, read-out: Spn 49619 MIC
Procedure: The following Tables 1 and 2 contain inhibitory concentrations determined in the above test for representative members of the class of compound defined by formula I. The following microorganisms were tested: Col. 1: […]

Row | Compound | Spn 1/1 MIC [1] | IC50 ([2]; purified DHFR of S. pneumoniae strain Spn1/1, read-out: Spn 1/1 IC50) | Spn 49619 MIC [3] | MIC [1] | IC50 [2] | MIC [3]
1 | 6-(2,4-Diamino-pyrimidin-5-ylmethyl)-4-ethoxy-indole-1-sulfonic Acid dimethylamide [Example 2e] | 4 µg/mL | 110 nM | 0.06 µg/mL |  |  | 
2 | CCn1cc(CN2CC(C)OC(C)C2)c2c(OS(=O)(=O)C(C)C)cc(Cc3cnc(N)nc3N)cc21 (mixture of isomers) [Example 10d, (cis/trans)-Propane-2-sulfonic acid 6-(2,4-diamino-pyrimidin-5-ylmethyl)-3-(2,6-dimethyl-morpholin-4-ylmethyl)-1-ethyl-1H-indol-4-yl ester] |  |  |  | 8 µg/mL | 250 nM | 1 µg/mL
3 | CCC(C)S(=O)(=O)Oc1cc(Cc2cnc(N)nc2N)cc2c1ccn2C (racemic) [Example 5e, rac-Butane-2-sulfonic acid 6-(2,4-diamino-pyrimidin-5-ylmethyl)-1-methyl-1H-indol-4-yl ester] |  |  |  | 8 µg/mL (≈ 20.5 µM) | 13 nM | 0.125 µg/mL (≈ 0.321 µM)
4 | CCn1ccc2c(OCC3CCCO3)cc(Cc3cnc(N)nc3N)cc21 (racemic) [Example 7i, rac-5-[1-Ethyl-4-(tetrahydro-furan-2-ylmethoxy)-1H-indol-6-ylmethyl]-pyrimidine-2,4-diamine] |  |  |  | 8 µg/mL (≈ 21.8 µM) | 13 nM | 0.5 µg/mL (≈ 1.36 µM)
5 | CCC(C)S(=O)(=O)Oc1cc(Cc2cnc(N)nc2N)cc2c1ccn2CC (racemic) [Example 8d, rac-Butane-2-sulfonic acid 6-(2,4-diamino-pyrimidin-5-ylmethyl)-1-ethyl-1H-indol-4-yl ester] |  |  |  | 1 µg/mL (≈ 2.48 µM) | 1.8 nM | 0.03 µg/mL (≈ 0.0743 µM)
6 | CCC(C)S(=O)(=O)Oc1cc(Cc2cnc(N)nc2N)cc2c1cc(C)n2CC (racemic) [Example 15c, rac-Butane-2-sulfonic acid 6-(2,4-diamino-pyrimidin-5-ylmethyl)-1-ethyl-2-methyl-1H-indol-4-yl ester] |  |  |  | 2 µg/mL (≈ 4.79 µM) | 8.7 nM | 0.03 µg/mL (≈ 0.0719 µM)
7 | CCOc1cc(Cc2cnc(N)nc2N)cc(OCC)c1-n1cccc1 [Epiroprim, reference compound] |  |  |  | 4 µg/mL (≈ 11.3 µM) | 190 nM | 0.125 µg/mL (≈ 0.354 µM)
8 | CCOc1cc(Cc2cnc(N)nc2N)cc2c1ccn2CC1CC1 [Example 2a, 5-(1-cyclopropylmethyl-4-ethoxy-1H-indol-6-ylmethyl)-pyrimidine-2,4-diamine] |  |  |  | > 8 µg/mL | 110 nM | 0.5 µg/mL (≈ 1.48 µM)
9 | CCOc1cc(Cc2cnc(N)nc2N)cc2c1ccn2C1CCCC1 [Example 2b, 5-(1-Cyclopentyl-4-ethoxy-1H-indol-6-ylmethyl)-pyrimidine-2,4-diamine] |  |  |  | 8 µg/mL (≈ 22.8 µM) | 150 nM | 0.5 µg/mL (≈ 1.42 µM)
10 | CCOc1cc(Cc2cnc(N)nc2N)cc2c1ccn2Cc1ccccc1 [Example 2c, 5-(1-Benzyl-4-ethoxy-1H-indol-6-ylmethyl)-pyrimidine-2,4-diamine] |  |  |  | > 8 µg/mL | 460 nM | 2 µg/mL (≈ 5.36 µM)
11 | CCOc1cc(Cc2cnc(N)nc2N)cc2c1ccn2S(=O)(=O)C(C)C [Example 2d, 5-[4-Ethoxy-1-(propane-2-sulfonyl)-1H-indol-6-ylmethyl]-pyrimidine-2,4-diamine] |  |  |  | > 8 µg/mL | 330 nM | 0.5 µg/mL (≈ 1.28 µM)
12 | CCOc1cc(Cc2cnc(N)nc2N)cc2c1ccn2CC [Example 3, 5-(4-Ethoxy-1-ethyl-1H-indol-6-ylmethyl)-pyrimidine-2,4-diamine] |  |  |  | 4 µg/mL (≈ 12.8 µM) | 24 nM | 0.125 µg/mL (≈ 0.401 µM)
13 | Cn1ccc2c(OCC3CC3)cc(Cc3cnc(N)nc3N)cc21 [Example 5a, 5-(4-Cyclopropylmethoxy-1-methyl-1H-indol-6-ylmethyl)-pyrimidine-2,4-diamine] |  |  |  | 4 µg/mL (≈ 12.4 µM) | 110 nM | 0.25 µg/mL (≈ 0.773 µM)
14 | CC(C)Oc1cc(Cc2cnc(N)nc2N)cc2c1ccn2C [Example 5b, 5-(4-Isopropoxy-1-methyl-1H-indol-6-ylmethyl)-pyrimidine-2,4-diamine] |  |  |  | > 8 µg/mL | 170 nM | 0.5 µg/mL (≈ 1.61 µM)
15 | CC(C)S(=O)(=O)Oc1cc(Cc2cnc(N)nc2N)cc2c1ccn2C [Example 5c, Propane-2-sulfonic acid 6-(2,4-diamino-pyrimidin-5-ylmethyl)-1-methyl-1H-indol-4-yl ester] |  |  |  | 4 µg/mL (≈ 10.7 µM) | 84 nM | 0.25 µg/mL (≈ 0.666 µM)
16 | CC(C)CS(=O)(=O)Oc1cc(Cc2cnc(N)nc2N)cc2c1ccn2C [Example 5d, 2-Methyl-propane-1-sulfonic acid 6-(2,4-diamino-pyrimidin-5-ylmethyl)-1-methyl-1H-indol-4-yl ester] |  |  |  | 4 µg/mL (≈ 10.3 µM) | 36 nM | 0.125 µg/mL (≈ 0.321 µM)

Row | Compound | Spn 1/1 MIC [1] | IC50 ([2]; purified DHFR of S. pneumoniae strain Spn1/1, read-out: Spn 1/1 IC50) | Spn 49619 MIC [3] | MIC [1] | IC50 [2] | MIC [3]
17 | CCn1ccc2c(OCC3CC3)cc(Cc3cnc(N)nc3N)cc21 [Example 7a, 5-(4-Cyclopropylmethoxy-1-ethyl-1H-indol-6-ylmethyl)-pyrimidine-2,4-diamine] |  |  |  | 4 µg/mL (≈ 11.9 µM) | 21 nM | 0.125 µg/mL (≈ 0.37 µM)
18 | CCn1ccc2c(OC)cc(Cc3cnc(N)nc3N)cc21 [Example 7b, 5-(1-Ethyl-4-methoxy-1H-indol-6-ylmethyl)-pyrimidine-2,4-diamine] |  |  |  | 8 µg/mL (≈ 26.9 µM) | 410 nM | 0.5 µg/mL (≈ 1.68 µM)
19 | CCn1ccc2c(OC(C)C)cc(Cc3cnc(N)nc3N)cc21 [Example 7c, 5-(1-Ethyl-4-isopropoxy-1H-indol-6-ylmethyl)-pyrimidine-2,4-diamine] |  |  |  | 4 µg/mL (≈ 12.3 µM) | 140 nM | 0.25 µg/mL (≈ 0.768 µM)
20 | C#CCOc1cc(Cc2cnc(N)nc2N)cc2c1ccn2CC [Example 7d, 5-(1-Ethyl-4-prop-2-ynyloxy-1H-indol-6-ylmethyl)-pyrimidine-2,4-diamine] |  |  |  | 8 µg/mL (≈ 24.9 µM) | 71 nM | 0.125 µg/mL (≈ 0.389 µM)
21 | CCn1ccc2c(OCC3OCCO3)cc(Cc3cnc(N)nc3N)cc21 [Example 7e, 5-[4-([1,3]Dioxolan-2-ylmethoxy)-1-ethyl-1H-indol-6-ylmethyl]-pyrimidine-2,4-diamine] |  |  |  | 8 µg/mL (≈ 21.7 µM) | 210 nM | 1 µg/mL (≈ 2.71 µM)
22 | CCn1ccc2c(OCC3CCC3)cc(Cc3cnc(N)nc3N)cc21 [Example 7f, 5-(4-Cyclobutylmethoxy-1-ethyl-1H-indol-6-ylmethyl)-pyrimidine-2,4-diamine] |  |  |  | 2 µg/mL (≈ 5.69 µM) | 41 nM | 0.5 µg/mL (≈ 1.42 µM)
23 | CCn1ccc2c(OCC(C)C)cc(Cc3cnc(N)nc3N)cc21 [Example 7g, 5-(1-Ethyl-4-isobutoxy-1H-indol-6-ylmethyl)-pyrimidine-2,4-diamine] |  |  |  | 2 µg/mL (≈ 5.89 µM) | 29 nM | 0.5 µg/mL (≈ 1.47 µM)
24 | CCn1ccc2c(OCC3(C)CC3)cc(Cc3cnc(N)nc3N)cc21 [Example 7h, 5-[1-Ethyl-4-(1-methyl-cyclopropylmethoxy)-1H-indol-6-ylmethyl]-pyrimidine-2,4-diamine] |  |  |  | 4 µg/mL (≈ 11.4 µM) | 15 nM | 1 µg/mL (≈ 2.85 µM)
25 | CCn1ccc2c(OS(=O)(=O)C(C)C)cc(Cc3cnc(N)nc3N)cc21 [Example 8a, Propane-2-sulfonic acid 6-(2,4-diamino-pyrimidin-5-ylmethyl)-1-ethyl-1H-indol-4-yl ester] |  |  |  | 1 µg/mL (≈ 2.57 µM) | 28 nM | 0.03 µg/mL (≈ 0.077 µM)
26 | CCn1ccc2c(OS(=O)(=O)CC3CC3)cc(Cc3cnc(N)nc3N)cc21 [Example 8b, Cyclopropyl-methanesulfonic acid 6-(2,4-diamino-pyrimidin-5-ylmethyl)-1-ethyl-1H-indol-4-yl ester] |  |  |  | 1 µg/mL (≈ 2.49 µM) | 1.5 nM | ≤ 0.015 µg/mL
27 | CCn1ccc2c(OS(=O)(=O)CC(C)C)cc(Cc3cnc(N)nc3N)cc21 [Example 8c, 2-Methyl-propane-1-sulfonic acid 6-(2,4-diamino-pyrimidin-5-ylmethyl)-1-ethyl-1H-indol-4-yl ester] |  |  |  | 2 µg/mL (≈ 4.96 µM) | 1.5 nM | ≤ 0.015 µg/mL
28 | CCn1ccc2c(OS(=O)(=O)N(C)C)cc(Cc3cnc(N)nc3N)cc21 [Example 9, Dimethyl-sulfamic Acid 6-(2,4-diamino-pyrimidin-5-ylmethyl)-1-ethyl-1H-indol-4-yl ester] |  |  |  | 2 µg/mL (≈ 5.12 µM) | 29 nM | 0.03 µg/mL (≈ 0.0768 µM)
29 | CCn1cc(CN2CCOCC2)c2c(OCC3CC3)cc(Cc3cnc(N)nc3N)cc21 [Example 10a, 5-(4-Cyclopropylmethoxy-1-ethyl-3-morpholin-4-ylmethyl-1H-indol-6-ylmethyl)-pyrimidine-2,4-diamine] |  |  |  | 8 µg/mL (≈ 18.3 µM) | 180 nM | 0.25 µg/mL (≈ 0.573 µM)
30 | CCn1cc(CN2CCOCC2)c2c(OS(=O)(=O)C(C)C)cc(Cc3cnc(N)nc3N)cc21 [Example 10b, Propane-2-sulfonic acid 6-(2,4-diamino-pyrimidin-5-ylmethyl)-1-ethyl-3-morpholino-4-ylmethyl-1H-indol-4-ester] |  |  |  | 8 µg/mL (≈ 16.4 µM) | 110 nM | 0.5 µg/mL (≈ 1.02 µM)
31 | CCn1cc(CN2CCSCC2)c2c(OS(=O)(=O)C(C)C)cc(Cc3cnc(N)nc3N)cc21 [Example 10c, Propane-2-sulfonic acid 6-(2,4-diamino-pyrimidin-5-ylmethyl)-1-ethyl-3-thiomorpholin-4-ylmethyl-1H-indol-4-yl ester] |  |  |  | 4 µg/mL (≈ 7.93 µM) | 160 nM | 1 µg/mL (≈ 1.98 µM)
32 | COc1cc(Cc2cnc(N)nc2N)cc(OC)c1OC [Trimethoprim, reference compound] |  |  |  | > 32 µg/mL |  | 4 µg/mL (≈ 13.8 µM)
